“Also recorded” adds a separate entry of the source.
Key:
Hartley guinea pigs = assay: Swallowing reflex decrease by repeated administrations of haloperidol (water drinking frequency); assay type: in vivo, guinea pig; conditions: haloperidol 1 mg/kg s.c. twice per day for 7 days, compared to physiological saline group
Protocol: To 6 week-old female Hartley guinea pigs (330 to 390 g) habituated for 1 week after receipt, a physiological saline solution, or a haloperidol solution was injected subcutaneously in a dosage of 1 mg/kg approx. every 12 hours twice per day for 7 days. Thereafter, a guinea pig was fixed at extremities, and 500 μL of distilled water was injected over 5 sec through a device to a part just before the pharynx, and the total frequency of swallowing until 10 sec and 30 sec from the injection was measured based on a muscle movement in a pharyngeal site. Thereafter a physiological saline solution, or a haloperidol solution was injected again (1 mg/kg).
The measurements were repeated totally 4 times at intervals of 1 min. […] Based on the result, the guinea pig was used as a dysphagia model induced by repeated administrations of haloperidol in the following experiments for evaluation of drug efficacy.

[1] = tested on: guinea pig dysphagia model induced by repeated administrations of haloperidol; assay: Swallowing reflex improvement in guinea pig dysphagia model induced by repeated administrations of haloperidol (water drinking frequency); assay type: in vivo
normal guinea pig = assay: Swallowing reflex in normal guinea pig after local pharyngeal administration of substance P receptor antagonist FK888; assay type: in vivo
Protocol: FIG. 4 is a graph showing the results of a study of decrease in a swallowing reflex in a normal guinea pig by local administration to a pharyngeal site of a substance P receptor antagonist, and an improving effect by a prior local administration to the pharyngeal site of a captopril aqueous solution in Example 3.
FK888 (10 μM, 50 μL/guinea pig), which is a substance P receptor antagonist, was administered locally with a spray device to a pharyngeal site of a guinea pig, and water drinking reflection frequency was measured in the same way as in Experiment 1.

[2] = tested on: blood pressure increase induced by angiotensin I; assay: Blood pressure increase induced by intravenous angiotensin I in normal rat; conditions: angiotensin I 300 ng/kg i.v. after 1 hour
Protocol: The respective dose of a captopril, or lisinopril aqueous solution was administered orally and the blood pressures were measured after 1 hour. Thereafter, angiotensin I was administered intravenously (300 ng/kg) to induce blood pressure increase and a change in the mean blood pressure was measured.

O=C(CCCN1CCC(O)(c2ccc(Cl)cc2)CC1)c1ccc(F)cc1 [haloperidol]
water drinking frequency (Hartley guinea pigs): significantly decreased

CN(Cc1ccccc1)C(=O)[C@H](Cc1ccc2ccccc2c1)NC(=O)[C@@H]1C[C@@H](O)CN1C(=O)c1cn(C)c2ccccc12 [FK888]
increase in water drinking frequency by lisinopril (50 nM, 100 μL) ([1]; FK888 10 nM, 100 μL sprayed to pharyngeal mucosa 15 min after lisinopril administration): almost completely suppressed
influence on swallowing reflex (normal guinea pig; FK888 10 nM, 100 μL, local, stated as lower limit): not influencing swallowing reflex
swallowing reflex (water drinking reflection frequency) (normal guinea pig; FK888 10 μM, 50 μL/guinea pig, single local spray to pharyngeal site): decrease in swallowing reflex

NCCCC[C@H](N[C@@H](CCc1ccccc1)C(=O)O)C(=O)N1CCC[C@H]1C(=O)O [lisinopril]
dose (solution concentration) with significant increase in water drinking frequency ([1]; 100 μL aqueous solution, single spray to pharyngeal mucosa): ≥ 50 nM
water drinking frequency ([1]; 100 μL of 0.5 nM to 500 μM aqueous solution, single spray to pharyngeal mucosa): dose-dependent increase
water drinking frequency ([1]; 100 μL of 50 nM aqueous solution, single spray to pharyngeal mucosa, 30 min after administration): increase in water drinking frequency
dose per administration giving dysphagia improving effect in a human ([1]; converted for a human having an average body weight of 60 kg): ≥ 300 ng
dysphagia improvement effective dose based on body weight ([1]; converted from effective dose obtained in Examples): 0.005 µg/kg
water drinking frequency (dysphagia improving effect) ([1]; local administration of 100 μL of 50 μM aqueous solution to pharyngeal mucosa, 2 hours after administration): exhibited an improving effect on dysphagia
water drinking frequency (dysphagia improving effect) ([1]; oral (intragastric) administration of same dose as local (100 μL of 50 mM solution), 2 hours after administration): exerted no influence; also recorded: no dysphagia improving effect was observed
vasopressor reaction by administration of angiotensin I (change in mean blood pressure) ([2]; 100 μL of 5 μM aqueous solution orally): had no influence
vasopressor reaction by administration of angiotensin I (change in mean blood pressure) ([2]; 100 μL of 5 mM aqueous solution orally): suppressed a vasopressor reaction

C[C@H](CS)C(=O)N1CCC[C@H]1C(=O)O [captopril]
water drinking frequency ([1]; 100 μL of 50 μM aqueous solution, single spray to pharyngeal mucosa, 30 min after administration): significant increase; also recorded: exhibited an improving effect on dysphagia
water drinking frequency ([1]; 100 μL of 50 mM aqueous solution, single spray to pharyngeal mucosa, 30 min after administration): significant increase; also recorded: exhibited an improving effect on dysphagia
water drinking frequency (dysphagia improving effect) ([1]; oral (intragastric) administration, same dose as 100 μL of 50 μM solution, 30 min after administration): did not exert an influence
water drinking frequency (dysphagia improving effect) ([1]; oral (intragastric) administration, same dose as 100 μL of 50 mM solution, 30 min after administration): did not exert an influence
decrease in swallowing reflex by FK888 administration (normal guinea pig; captopril aqueous solution sprayed to pharyngeal site in a single dose 30 min before FK888): suppressed

Source: patent US9974768B2, “Pharmaceutical for improving dysphagia” (MEIJI SEIKA PHARMA CO., LTD., priority 2013, dated 2018)
